Holding throughout (experiment): NCI anticancer screen, dose series, 48 h
Assay [1] concerns NCI-H23 lung.
Assay [2] concerns UACC-257 melanoma.
The subject of assay [3] is MDA-MB-435.
In assay [4] the test system is LOX IMVI melanoma.
In assay [5] the test system is SK-MEL-2 melanoma.
Assay [6] relates to IGROV1 ovarian.
The test system of assay [7] is SR leukemia.
The test system of assay [8] is NCI-H522 lung.
In assay [9] the test system is TK-10 renal.
Assay [10] relates to SK-MEL-28 melanoma.

Where “and” joins values, the source holds several entries; their conditions need not be identical. Identical values can stand only once.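 Step 1: Grow cells in 96-well plates. Step 2: Expose to compound for 48 hours at 5 concentrations. Step 3: Interpolate endpoints linearly; if unreached, use highest concentration. GI50 is the concentration that inhibits growth by half. TGI marks complete inhibition of growth.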 A value given as a limit tells only on which side of the number the result lay.

Consider `COc1cc2ncnc(Nc3ccc4c(cnn4Cc4ccccc4)c3)c2cc1OC`, for which the GI50 in assay [1] is above 25 µM; in assay [2] it was above 25 µM; in [3], above 25 µM; in assay [4], above 19.4 µM; in assay [5], above 25 µM; in assay [6] it was 4.83 µM. Moreover, the GI50 is 24.9 µM in [7], 0.724 µM in assay [8], 0.131 µM in assay [9] and above 25 µM in assay [10]. Besides, the TGI in [1], in [2], in [3], in [4], in assay [5] and in assay [6] was above 25 µM each time. Besides, the TGI in assay [7], in assay [8], in assay [9] and in assay [10] was above 25 µM throughout.

Consider `CCOC(=O)c1oc2ccc([N+](=O)[O-])c3c2c1CCC3`, for which the TGI in [1] is above 100 µM; in assay [2], above 100 µM; in [3], above 55.5 µM; in [4], above 88.1 µM; in [5] it was above 100 µM; in [6], above 100 µM. For the same compound, the TGI in assay [7] was above 100 µM; in assay [8], above 85.2 µM; in assay [9], 85.9 µM; in assay [10], above 100 µM.

On to `O=S1(=O)CS(=O)(=O)OCCO1`, for which the TGI in assay [1] is > 81.5 µM and 113 µM; in assay [2], 153 µM; in assay [3], 94.4 µM; in assay [4], 71.3 µM; in [5], 119 µM; in assay [6], 144 µM. Besides, the TGI in assay [8] came to 140 µM; in assay [9], 363 µM; in [10], 300 µM. For the same compound, the GI50 in assay [2] was above 63.8 µM; in assay [3] it was 72.9 µM; in [4], 29.7 µM; in assay [6], above 69.7 µM; in [7], 1.15 µM; in [8], above 96.4 µM. In assay [10], the GI50 was above 93.9 µM.

For the compound `CCC(=O)Nc1ccccc1C#C/C=C\C#Cc1ccccc1C(F)(F)F`, the GI50 was 5.27 µM in assay [1]; 7.17 µM in assay [2]; 0.851 µM in [3]; 5.14 µM in assay [4]; 0.631 µM in [5]; 3.39 µM in assay [6]. Moreover, the GI50 was 0.386 µM in [7], 1.33 µM in assay [8], 4.46 µM in assay [9] and 3.65 µM in assay [10]. Also, the TGI in assay [1] is above 50 µM; in assay [2] it was above 45.2 µM; in assay [3], 1.84 µM; in assay [4], above 50 µM; in assay [5] it was above 11.1 µM; in assay [6] it was above 18.9 µM. The TGI in [8] is 6.09 µM; in assay [9], above 50 µM; in assay [10], above 50 µM.

As for `C/C=C/[C@H]1O[C@@H]2C(=C[C@H]1O)C(=O)O[C@H]2C`, the GI50 was 16.4 µM in [1]; 21.7 µM in [2]; 21.9 µM in assay [3]; 15 µM in assay [4]; 37.8 µM in assay [5]; 17.1 µM in assay [6]. For the same compound, the GI50 is 7.29 µM in [7], 5.02 µM in assay [8], 14.9 µM in [9] and 0.786 µM in [10]. In addition, the TGI in assay [1] was 44.2 µM; in assay [2] it was 43.7 µM; in assay [3], 43.5 µM; in assay [4], 31.5 µM; in [5] it was above 100 µM; in [6] it was above 59.9 µM. For the same compound, the TGI is above 100 µM in assay [7], above 42.9 µM in assay [8], 33 µM in assay [9] and 12.1 µM in [10].

For `COCCN1CCN(Cc2ccc(-c3n[nH]c4c3C(=O)c3c(NC(=O)NN5CCOCC5)cccc3-4)cc2)CC1`, the GI50 was 0.0227 µM in assay [1]; 0.0336 µM in [2]; 0.0227 µM in assay [3]; 0.0185 µM in assay [4]; 0.0212 µM in assay [5]; 0.0226 µM in assay [6]. Further, the GI50 in assay [7] was 0.00985 µM; in assay [8], 0.0194 µM; in assay [9] it was 0.0199 µM; in assay [10] it was 0.0246 µM. Moreover, the TGI in assay [1] was determined as 0.129 µM; in assay [2], 0.281 µM; in [3], 0.424 µM; in [4], 0.12 µM; in [5] it was 0.0556 µM; in [6], 1.19 µM. The TGI in assay [7] was 0.0599 µM; in assay [8] it was 0.0736 µM; in assay [9], 0.422 µM; in assay [10], 0.471 µM.

As for `Cc1[nH]nc2c1N=C(c1ccccc1F)c1cc(C(N)=O)ccc1N2`, the GI50 was 6.85 µM in [1]; 9.15 µM in assay [2]; 7.35 µM in assay [3]; 2.04 µM in [4]; 2.45 µM in [5]; 8.29 µM in assay [6]. For the same compound, the GI50 in assay [7] is 0.191 µM; in assay [8] it was 2.19 µM; in assay [9] it was 3.61 µM; in assay [10], 5.79 µM. Besides, the TGI is above 25 µM in assay [1]; above 25 µM in assay [2]; above 25 µM in [3]; 13.2 µM in assay [4]; 7.14 µM in assay [5]; above 22.5 µM in assay [6]. Also, the TGI in [7] is 8.2 µM; in assay [8], above 19.6 µM; in assay [9], 16.3 µM; in assay [10], above 24.1 µM.

As for `COc1c(-c2ccc(O)c(O)c2)oc2c(O)c(O)cc(O)c2c1=O`, the TGI in assay [1] was above 100 µM; in assay [2] it was above 100 µM; in assay [3], above 100 µM; in assay [4], 29.4 µM; in assay [5] it was above 100 µM; in assay [6], 70.7 µM. The TGI in assay [7] is 50.8 µM; in assay [8], above 100 µM; in assay [9], above 100 µM; in assay [10] it was above 100 µM.

As to `CC1(C)C(=O)/C=C\C(=O)C(C)(C)C(=O)/C=C\C(=O)C(C)(C)C(=O)/C=C\C(=O)C(C)(C)C(=O)/C=C\C1=O`, the TGI in assay [1] is 51.6 µM; in assay [2] it was 63.9 µM; in assay [3], above 100 µM; in assay [4] it was above 53.8 µM; in assay [5] it was 47.5 µM; in assay [6] it was 56.5 µM. Besides, the TGI in assay [7] is 27.8 µM; in [8] it was 20.2 µM; in [9], above 68.6 µM; in assay [10], above 58 µM.

With `CN(C)CC(C(=O)Cc1ccccc1)c1ccccc1` (stereo not given), the GI50 in assay [1] is 12.2 µM; in assay [2] it was 1.79 µM; in assay [3], 3.09 µM; in [4], 1.39 µM; in [5] it was 2.54 µM; in assay [6], 11.6 µM. The GI50 is 1.24 µM in [7], 1.74 µM in assay [8], 1.56 µM in [9] and 3.22 µM in assay [10]. The TGI in assay [1] was 30.5 µM; in assay [2], 4.25 µM; in assay [3], 12.2 µM; in [4], 3.04 µM; in [5], 5.57 µM; in [6], 26.4 µM. The TGI in assay [7] came out at 7.55 µM; in assay [8] it was 3.47 µM; in [9], 3.1 µM; in assay [10] it was 10.2 µM.

For the compound `Cc1[nH]c(-c2nc3ccccc3[nH]2)c(C)c1C(=O)NC(C)C1CCCCC1` (stereo not given), the GI50 in assay [1] was 12.6 µM; in [2], 13.2 µM; in assay [3], 2.29 µM; in assay [4], 10 µM; in [5], 10.1 µM; in assay [6], 6.16 µM. For the same compound, the GI50 in [7] was 4.38 µM; in assay [8] it was 13.2 µM; in assay [9] it was 21.5 µM; in assay [10] it was 10.4 µM. Also, the TGI is 31.5 µM in [1]; 33.3 µM in assay [2]; 5.85 µM in [3]; 29.7 µM in [4]; 25.5 µM in assay [5]; 23.9 µM in [6]. Further, the TGI in assay [7] was determined as 34.5 µM; in assay [8], 44 µM; in assay [9], 41.6 µM; in [10] it was 23.5 µM.

For `COC(=O)/C=C1/SC(N2N=C(c3cccs3)CC2c2ccc(F)cc2)=NC1=O` (stereo not given), the GI50 was 2.33 µM in [1]; 2.39 µM in assay [2]; 2.13 µM in assay [3]; 1.61 µM in assay [4]; 4.04 µM in [5]; 2.4 µM in [6]. In addition, the GI50 in assay [7] is 2.23 µM; in assay [8] it was 2.15 µM; in assay [9] it was 2.6 µM; in [10], 2.61 µM. Moreover, the TGI in [1] came out at 5.82 µM; in assay [2], 6.83 µM; in assay [3], 4.8 µM; in assay [4] it was 3.06 µM; in assay [5], 15.6 µM; in assay [6] it was 7.06 µM. In addition, the TGI in [7] was determined as 11.8 µM; in assay [8], 4.79 µM; in assay [9] it was 8.16 µM; in assay [10], 6 µM.

Take `CCCCCCCCCCCCCCCC(=O)OCC1OC(OC)C2NP(=O)(N(CCCl)CCCl)OC1C2O` (stereo not given): the TGI in assay [1] was 6.76 µM; in [2], 42.9 µM; in [3], 21.7 µM; in assay [4], 6.58 µM; in assay [5], 24.3 µM; in [6], above 54.9 µM. Moreover, the TGI was 1.78 µM in [7], 3.42 µM in [8], 31.7 µM in assay [9] and 61.1 µM in [10].

In the case of `CN1CCN(Cc2ccc(NC(=O)c3cncc(C#Cc4cncc5nccnc45)c3)cc2C(F)(F)F)CC1`, the GI50 in assay [1] was 2.16 µM; in assay [2], 1.48 µM; in [3], 1.34 µM; in assay [4], 0.695 µM; in assay [5] it was 0.915 µM; in [6] it was 1.52 µM. Also, the GI50 was 2.98 µM in assay [7], 3.17 µM in assay [8], 5.34 µM in [9] and 1.66 µM in [10]. The TGI is 11 µM in [1]; 6.27 µM in assay [2]; 7.3 µM in [3]; 5.48 µM in assay [4]; 2.7 µM in assay [5]; 7.07 µM in assay [6]. In addition, the TGI turned out to be 28.5 µM in assay [7], 10.8 µM in assay [8], 12.8 µM in assay [9] and 5.97 µM in [10].

For `C/C(=N\NC(=S)N1CCCCCCCCCCCC1)c1ccccn1`, the TGI turned out to be 2.81 µM in assay [1]; 0.414 µM in assay [2]; 0.721 µM in assay [3]; 1.23 µM in assay [4]; 1.27 µM in [5]; 1.35 µM in assay [6]. The TGI in [7] was 2.28 µM; in assay [8], 0.408 µM; in assay [9], 1.35 µM; in assay [10], 2.02 µM.

Consider `CCOC(=O)c1c(C)nc2c(c1N)CC(=O)N2CCc1ccccc1`, for which the GI50 in [1] is 5.46 µM; in [2], 4.68 µM; in assay [3] it was 0.354 µM; in assay [4] it was 0.384 µM; in assay [5] it was 0.53 µM; in [6], 1.26 µM. Further, the GI50 is 0.444 µM in [7], 0.283 µM in assay [8], 0.596 µM in assay [9] and 2.35 µM in assay [10]. The TGI in [1] was determined as 23 µM; in [2] it was 19.4 µM; in assay [3], 15.4 µM; in assay [4], 14.7 µM; in [5], 6.8 µM; in assay [6], 13 µM. The TGI is 28.1 µM in assay [7], 1.11 µM in assay [8], 15 µM in [9] and 12.1 µM in assay [10].

`O=C(O)CCc1c2ccc(=O)c(O)c-2oc2c(O)c(O)ccc12`: the TGI in assay [1] is above 100 µM; in assay [2], above 100 µM; in assay [3], 31.1 µM; in assay [4] it was 47.9 µM; in [5], above 100 µM; in [6] it was above 100 µM. Further, the TGI in assay [7], in [8], in assay [9] and in assay [10] was above 100 µM each time.

(Values after PubChem BioAssay (NCI).)
